Experimental findings from patent publication US20070010671A1, “Novel quinazoline derivatives and methods of treatment related to the use thereof” (priority 2003, published 2007) are described below.

The target in this assay is MCH receptor (Homo sapiens, UniProt Q99705). As to the kind of experiment: High throughput functional screening FLIPR/FDSS6000: inhibition of MCH-evoked intracellular Ca2+ changes. As to conditions: class by percent of control at 10^-7 M or by IC50; read-out: class. It is filed as cell-based. The essentials: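 Constitutively active non-endogenous MCH-R cells; Fluo4-AM 4 μM, 2.5 mM probenecid, 1 hr, 37° C; cpd 3 min, 37° C; MCH 50 nM (antagonist mode); kinetic Ca2+ read Ex488/Em530, 290 s.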

For `COc1ccc(NC(=O)N[C@H]2CC[C@@H](Nc3nc(N(C)C)c4ccccc4n3)CC2)c(C)c1` [compound 827, N-(cis-4-{[4-(dimethylamino)quinazolin-2-yl]amino}cyclohexyl)-N′-(4-methoxy-2-methylphenyl)urea], the IC50 was under 50 nM.
Consider `COc1ccc(NC(=O)N[C@H]2CC[C@@H](Nc3nc(N(C)C)c4ccccc4n3)CC2)c([N+](=O)[O-])c1` [compound 828], for which the IC50 was over 200 nM.
The same measure for `Cc1ccc(NC(=O)N[C@H]2CC[C@@H](Nc3nc(N(C)C)c4ccccc4n3)CC2)cc1[N+](=O)[O-]` [compound 829]: over 200 nM; for `Cc1ccc(CNC(=O)N[C@H]2CC[C@@H](Nc3nc(N(C)C)c4ccccc4n3)CC2)cc1` [compound 830, N-(cis-4-{[4-(dimethylamino)quinazolin-2-yl]amino}cyclohexyl)-N′-(4-methylbenzyl)urea]: 50 to 200 nM; for `CCCCOc1ccc(NC(=O)N[C@H]2CC[C@@H](Nc3nc(N(C)C)c4ccccc4n3)CC2)cc1` [compound 831]: over 200 nM.
The same measure for `CCCCc1ccc(NC(=O)N[C@H]2CC[C@@H](Nc3nc(N(C)C)c4ccccc4n3)CC2)cc1` [compound 832]: over 200 nM.
For `CN(C)c1nc(N[C@H]2CC[C@@H](NC(=O)Nc3ccc(-c4ccccc4)cc3)CC2)nc2ccccc12` [compound 833] the value was over 200 nM; for `COc1cc(OC)c(NC(=O)N[C@H]2CC[C@@H](Nc3nc(N(C)C)c4ccccc4n3)CC2)cc1Cl` [compound 834, N-(5-chloro-2,4-dimethoxyphenyl)-N′-(cis-4-{[4-(dimethylamino)quinazolin-2-yl]amino}cyclohexyl)urea], under 50 nM.
Consider `COc1ccc(Cl)cc1NC(=O)N[C@H]1CC[C@@H](Nc2nc(N(C)C)c3ccccc3n2)CC1` [compound 835], for which the IC50 was over 200 nM.
For `Cc1ccc(Cl)cc1NC(=O)N[C@H]1CC[C@@H](Nc2nc(N(C)C)c3ccccc3n2)CC1` [compound 836] the value was over 200 nM; for `CN(C)c1nc(N[C@H]2CC[C@@H](NC(=O)Nc3cc(Cl)ccc3[N+](=O)[O-])CC2)nc2ccccc12` [compound 837], over 200 nM.
Consider `Cc1ccc(F)cc1NC(=O)N[C@H]1CC[C@@H](Nc2nc(N(C)C)c3ccccc3n2)CC1` [compound 838, N-(cis-4-{[4-(dimethylamino)quinazolin-2-yl]amino}cyclohexyl)-N′-(5-fluoro-2-methylphenyl)urea], for which the IC50 lay within 50 to 200 nM.
The same measure for `CN(C)c1nc(N[C@H]2CC[C@@H](NC(=O)Nc3ccc4c(c3)CCC4)CC2)nc2ccccc12` [compound 839]: over 200 nM; for `CN(C)c1nc(N[C@H]2CC[C@@H](NC(=O)NC3c4ccccc4-c4ccccc43)CC2)nc2ccccc12` [compound 840, N-(cis-4-{[4-(dimethylamino)quinazolin-2-yl]amino}cyclohexyl)-N′-9H-fluoren-9-ylurea]: over 200 nM.
For `CN(C)c1nc(N[C@H]2CC[C@@H](NC(=O)NC3c4ccccc4-c4ccccc43)CC2)nc2ccccc12` [compound 841, N-(cis-4-{[4-(dimethylamino)quinazolin-2-yl]amino}cyclonexyl)-N′-9H-fluoren-9-ylurea] the value was 50 to 200 nM.
The same measure for `CN(C)c1nc(N[C@H]2CC[C@@H](NC(=O)NCCc3ccccc3)CC2)nc2ccccc12` [compound 842, N-(cis-4-{[4-(dimethylamino)quinazolin-2-yl]amino}cyclonexyl)-N′-(2-phenylethyl)urea]: 50 to 200 nM; for `CN(C)c1nc(N[C@H]2CC[C@@H](NC(=O)NC3CCCC3)CC2)nc2ccccc12` [compound 843, N-cyclophenyl-N′-(cis-4-{[4-(dimethylamino)quinazolin-2-yl]amino}cyclohexyl)urea]: 50 to 200 nM.
As for `CN(C)c1nc(N[C@H]2CC[C@@H](NC(=O)NC(c3ccccc3)c3ccccc3)CC2)nc2ccccc12` [compound 844, N-(cis-4-{[4-(dimethylamino)quinazolin-2-yl]amino}cyclohexyl)-N′-(diphenylmethyl)urea], the IC50 is under 50 nM.
For the compound `COC(=O)c1ccc(NC(=O)N[C@H]2CC[C@@H](Nc3nc(N(C)C)c4ccccc4n3)CC2)cc1` [compound 845], the IC50 is over 200 nM.
The same measure for `CN(C)c1nc(N[C@H]2CC[C@@H](NC(=O)OCCOCc3ccccc3)CC2)nc2ccccc12` [compound 846]: 50 to 200 nM.
The same measure for `CN(C)c1nc(N[C@H]2CC[C@@H](NC(=O)OCC(C)(C)C)CC2)nc2ccccc12` [compound 847]: over 200 nM.
For `COc1cc(COC(=O)N[C@H]2CC[C@@H](Nc3nc(N(C)C)c4ccccc4n3)CC2)c([N+](=O)[O-])cc1OC` [compound 848] the value was under 50 nM; for `CN(C)c1nc(N[C@H]2CC[C@@H](NC(=O)Oc3cccc(C(F)(F)F)c3)CC2)nc2ccccc12` [compound 849], over 200 nM; for `CN(C)c1nc(N[C@H]2CC[C@@H](NC(=O)Oc3ccc(Br)cc3)CC2)nc2ccccc12` [compound 850], over 200 nM.
On to `COc1ccccc1OC(=O)N[C@H]1CC[C@@H](Nc2nc(N(C)C)c3ccccc3n2)CC1` [compound 851], for which the IC50 is over 200 nM.
The same measure for `COCCOC(=O)N[C@H]1CC[C@@H](Nc2nc(N(C)C)c3ccccc3n2)CC1` [compound 852]: over 200 nM.
For `CCCCCCCCOC(=O)N[C@H]1CC[C@@H](Nc2nc(N(C)C)c3ccccc3n2)CC1` [compound 853] the value was over 200 nM; for `CCOC(=O)N[C@H]1CC[C@@H](Nc2nc(N(C)C)c3ccccc3n2)CC1` [compound 854], over 200 nM.
With `CN(C)c1nc(N[C@H]2CC[C@@H](NC(=O)OCc3ccc([N+](=O)[O-])cc3)CC2)nc2ccccc12` [compound 855], the IC50 is under 50 nM.
The same measure for `CN(C)c1nc(N[C@H]2CC[C@@H](NC(=O)Oc3ccc4ccccc4c3)CC2)nc2ccccc12` [compound 856]: over 200 nM; for `C=CCOC(=O)N[C@H]1CC[C@@H](Nc2nc(N(C)C)c3ccccc3n2)CC1` [compound 857]: over 200 nM.
For `CN(C)c1nc(N[C@H]2CC[C@@H](NC(=O)OCc3ccccc3)CC2)nc2ccccc12` [compound 858] the value was 50 to 200 nM; for `CN(C)c1nc(N[C@H]2CC[C@@H](NC(=O)Oc3ccccc3)CC2)nc2ccccc12` [compound 859], over 200 nM; for `CC(C)[C@@H]1CC[C@@H](C)C[C@H]1OC(=O)N[C@H]1CC[C@@H](Nc2nc(N(C)C)c3ccccc3n2)CC1` [compound 860], over 200 nM.
In the case of `Cc1ccc(OC(=O)N[C@H]2CC[C@@H](Nc3nc(N(C)C)c4ccccc4n3)CC2)cc1` [compound 861], the IC50 is over 200 nM.
`COC(=O)N[C@H]1CC[C@@H](Nc2nc(N(C)C)c3ccccc3n2)CC1` [compound 862]: the IC50 is over 200 nM.
For `CN(C)c1nc(N[C@H]2CC[C@@H](NC(=O)OCc3ccccc3Cl)CC2)nc2ccccc12` [compound 863] the value was 50 to 200 nM; for `CN(C)c1nc(N[C@H]2CC[C@@H](NC(=O)OCC3c4ccccc4-c4ccccc43)CC2)nc2ccccc12` [compound 864], over 200 nM.
The same measure for `CN(C)c1nc(N[C@H]2CC[C@@H](NC(=O)OCC(Cl)(Cl)Cl)CC2)nc2ccccc12` [compound 865]: over 200 nM; for `CN(C)c1nc(N[C@H]2CC[C@@H](CNC(=O)OCCOCc3ccccc3)CC2)nc2ccccc12` [compound 866]: over 200 nM.
